{"source": "patent US6979471B1", "about": "“Composition comprising pharmaceutical/nutraceutical agent and a bio-enhancer obtained from Glycyrrhiza glabra” (Council of Scientific and Industrial Research, priority 2000, dated 2005)", "type_in_all_cases": "cell-based", "key": {"Mycobacterium smegmatis": {"tested_on": "Mycobacterium smegmatis", "assay": "Disc diffusion assay against Mycobacterium smegmatis", "details": "Mycolicibacterium smegmatis; read-out: Net zone of inhibition", "description": "(§1) • a) The minimum inhibitory concentration (MIC) of any antibiotic or drug molecule is determined against Escherichia coli (ATCC 10536), Bacillus subtilis (ATCC 6015) and Mycobacterium smegmatis (ATCC 14468) and Candida albicans (ATCC 10231) in broth and disc diffusion assays. • b) The antibiotics or antifungal agents at concentrations 1/10, ⅛, ⅙, ¼, ⅓, ½ and equal to MIC are added alone and in combination with the test compound at varying concentrations in broth assays to evaluate the comparative level of inhibition and similarly at varying concentrations in disc diffusion assay. • c) The combinations showing enhancement in terms of higher activity than antibiotic alone for the inhibition of bacterial growth (large inhibition zone in disc diffusion and higher killing at lower concentration in broth assay) are picked up for future testing. • d) In broth assays the activity is quantified by counting number of viable cells in a given treatment and converted in fold enhancement by the combination treatment compared to antibiotic/drug alone in the killing percentage of cells. • e) The pretreatment assay is followed to determine whether the bioenhancer which may be either an extract obtained from the plant Glycyrrhiza glabra, glycyrrhizin or glycyrrhizic acid, is required along with antibiotic to enhance its activity or even its withdrawal after treatment or prior to antibiotic treatment would benefit. […] Assay for Bio-Enhancement of Anti-Cancer Agents • a) MCF-7 (Breast cancer cell line is inoculated at a density of about 0.1×10^6 cells in MEM medium in the wells of 24 well plate. • b) The used up medium in these cultures is replaced with fresh medium after 18 hours in each well. • c) The test compound (s) is added at desired concentrations in different wells just after the medium replacement. • d) Observations are recorded on the cell count after 36 hours for which the following steps are required. • i. […] The number of viable cells is counted in 5 big squares and the reading is taken from 5 microscopic fields to determine the average. • viii. […]"}, "Escherichia coli": {"tested_on": "Escherichia coli", "assay": "Disc diffusion assay against Escherichia coli", "details": "Escherichia coli; read-out: Net zone of inhibition", "description": "as §1"}, "[1]": {"tested_on": "Escherichia coli (ATCC 10536)", "assay": "Broth assay for bio-enhancement of antibiotics: viable cell count, Escherichia coli", "details": "Table 1; for *Folds enhancement in antibiotic activity (a/b): glycyrrhizin 1 μg/ml"}, "[2]": {"tested_on": "Bacillus subtilis (ATCC 6015)", "assay": "Broth assay for bio-enhancement of antibiotics: viable cell count, Bacillus subtilis", "description": "(§2) In the next step of elucidation of the enhancer action the applicants experimented with the killing activities of different antibiotics against the bacteria singly and in combination with the test compound glycyrrhizin following the method described above. These experiments are to be considered with assay for bioenhancement of the compounds glycyrrhizin/glycyrrhizic acid and licorice, as described earlier. […] In all the experiments the glycyrrhizin concentration was kept at 1 μg/ml, unless it is specifically mentioned."}, "[3]": {"tested_on": "Mycobacterium smegmatis (ATCC 14468)", "assay": "Broth assay for bio-enhancement of antibiotics: viable cell count, Mycobacterium smegmatis", "details": "Table 3; for *Folds enhancement in antibiotic activity (a/b): glycyrrhizin 1 μg/ml", "description": "(§3) For this, the cells are treated with the bioenhancer/compound for 4 to 8 hours and then washed free of it by centrifugation and washing in sterile water. […] 2. Assay for Bio-Enhancement of Anti-Cancer Agents • a) MCF-7 (Breast cancer cell line is inoculated at a density of about 0.1×10^6 cells in MEM medium in the wells of 24 well plate. • b) The used up medium in these cultures is replaced with fresh medium after 18 hours in each well. • c) The test compound (s) is added at desired concentrations in different wells just after the medium replacement. • d) Observations are recorded on the cell count after 36 hours for which the following steps are required. • i. The medium is removed from the wells. • ii. The wells are rinsed with 1 ml PBS (Phosphate buffer saline). • iii. To each well 500 μl of freshly prepared trypsin solution (0.1% in PBS) is added. • iv. Trypsin solution is removed after 30 seconds and the plate is gently tapped till the cells are released from the plate surface. • v. Fresh 1 ml of MEM growth medium is added and agitated with a pipette to obtain a cell suspension. • vi. 10 μl of cell suspension is taken on the haemocytometer and a cover glass is placed over the counting chamber. • vii. The number of viable cells is counted in 5 big squares and the reading is taken from 5 microscopic fields to determine the average. • viii. The cell count (titre per ml) in the original sample is then calculated as average count×10^3. Composition of Minimum Essential Medium (MEM): 100 ml\nas §2"}, "[4]": {"tested_on": "MCF-7 (Breast cancer cell line)", "assay": "Assay for bio-enhancement of anti-cancer agents: viable cell count after 36 hours", "details": "for Final titre of viable cells upon treatment with taxol-glycyrrhizin combination / Final titre of viable cells upon treatment with taxol alone: initial titre 0.1 × 10^6, 36 hours", "description": "as §3"}, "[5]": {"tested_on": "Candida albicans (ATCC 10231)", "assay": "Disc diffusion assay, antifungal agent against Candida albicans", "description": "as §1"}, "[6]": {"details": "antibiotic 8 μg/ml + glycyrrhizin 1 μg/ml"}, "[7]": {"details": "antibiotic 4 μg/ml + glycyrrhizin 1 μg/ml"}}, "data": [{"smiles": "CC1(C)[C@@H](O[C@H]2O[C@H](C(=O)O)[C@@H](O)[C@H](O)[C@H]2O[C@@H]2O[C@H](C(=O)O)[C@@H](O)[C@H](O)[C@H]2O)CC[C@]2(C)[C@H]3C(=O)C=C4[C@@H]5C[C@@](C)(C(=O)O)CC[C@]5(C)CC[C@@]4(C)[C@]3(C)CC[C@@H]12", "note": "[Glycyrrhizic acid]", "values": [{"measurement": "zone of inhibition at 4 µg/disc", "setting": "Mycobacterium smegmatis", "result": 0, "unit": "mm"}, {"measurement": "zone of inhibition at 4 µg/disc", "setting": "Escherichia coli", "result": 0, "unit": "mm"}]}, {"smiles": "CCn1cc(C(=O)O)c(=O)c2ccc(C)nc21", "note": "[Nalidixic acid]", "values": [{"measurement": "Survival fraction of viable cells upon treatment with antibiotic alone (a)", "setting": "[1]; antibiotic 8 μg/ml", "result": 0.19}, {"measurement": "Survival fraction of viable cells upon treatment with antibiotic- glycyrrhizin combination (b)", "setting": "[1]; [6]", "result": 0.02}, {"measurement": "*Folds enhancement in antibiotic activity (a/b)", "setting": "[1]; antibiotic 8 μg/ml", "result": 9.5, "unit": "folds"}, {"measurement": "Survival fraction of viable cells upon treatment with antibiotic alone (a)", "setting": "[2]; Table 2, antibiotic 6 μg/ml", "result": 0.50}, {"measurement": "Survival fraction of viable cells upon treatment with antibiotic- glycyrrhizin combination (b)", "setting": "[2]; Table 2, antibiotic 6 μg/ml + glycyrrhizin 1 μg/ml", "result": 0.11}, {"measurement": "*Folds enhancement in antibiotic activity (a/b)", "setting": "[2]; Table 2, antibiotic 6 μg/ml, glycyrrhizin 1 μg/ml", "result": 4.50, "unit": "folds"}, {"measurement": "Survival fraction of viable cells upon treatment with antibiotic alone (a)", "setting": "[2]; Table 2, antibiotic 8 μg/ml", "result": 0.27}, {"measurement": "Survival fraction of viable cells upon treatment with antibiotic- glycyrrhizin combination (b)", "setting": "[2]; Table 2, antibiotic 8 μg/ml + glycyrrhizin 1 μg/ml", "result": 0.04}, {"measurement": "*Folds enhancement in antibiotic activity (a/b)", "setting": "[2]; Table 2, antibiotic 8 μg/ml, glycyrrhizin 1 μg/ml", "result": 6.75, "unit": "folds"}, {"measurement": "Survival fraction of viable cells upon treatment with antibiotic alone (a)", "setting": "[2]; Table 11, antibiotic 6 μg/ml", "result": 0.500}, {"measurement": "Survival fraction of viable cells upon treatment with antibiotic glycyrrhizic acid combination (b)", "setting": "[2]; Table 11, antibiotic 6 μg/ml + licorice 25 μg/ml", "result": 0.121}, {"measurement": "*Folds enhancement in antibiotic activity (a/b)", "setting": "[2]; Table 11, antibiotic 6 μg/ml, licorice 25 μg/ml", "result": 4.10, "unit": "folds"}, {"measurement": "Survival fraction of viable cells upon treatment with antibiotic alone (a)", "setting": "[3]; antibiotic 4 μg/ml", "result": 0.70}, {"measurement": "Survival fraction of viable cells upon treatment with antibiotic- glycyrrhizin combination (b)", "setting": "[3]; [7]", "result": 0.12}, {"measurement": "*Folds enhancement in antibiotic activity (a/b)", "setting": "[3]; antibiotic 4 μg/ml", "result": 7.7, "unit": "folds"}]}, {"smiles": "CC1(C)S[C@@H]2[C@H](NC(=O)[C@H](N)c3ccccc3)C(=O)N2[C@H]1C(=O)O", "note": "[Ampicillin]", "values": [{"measurement": "Survival fraction of viable cells upon treatment with antibiotic alone (a)", "setting": "[1]; antibiotic 6 μg/ml", "result": 0.38}, {"measurement": "Survival fraction of viable cells upon treatment with antibiotic- glycyrrhizin combination (b)", "setting": "[1]; antibiotic 6 μg/ml + glycyrrhizin 1 μg/ml", "result": 0.03}, {"measurement": "*Folds enhancement in antibiotic activity (a/b)", "setting": "[1]; antibiotic 6 μg/ml", "result": 12.6, "unit": "folds"}, {"measurement": "Survival fraction of viable cells upon treatment with antibiotic alone (a)", "setting": "[1]; antibiotic 8 μg/ml", "result": 0.013}, {"measurement": "Survival fraction of viable cells upon treatment with antibiotic- glycyrrhizin combination (b)", "setting": "[1]; [6]", "result": 0.006}, {"measurement": "*Folds enhancement in antibiotic activity (a/b)", "setting": "[1]; antibiotic 8 μg/ml", "result": 2.1, "unit": "folds"}]}, {"smiles": "CC(=O)O[C@H]1C(=O)[C@@]2(C)[C@H]([C@H](OC(=O)c3ccccc3)[C@]3(O)C[C@H](OC(=O)[C@H](O)[C@@H](NC(=O)c4ccccc4)c4ccccc4)C(C)=C1C3(C)C)[C@]1(OC(C)=O)CO[C@@H]1C[C@@H]2O", "note": "[Taxol, Paclitaxel (Taxol)]", "values": [{"measurement": "Cancerous cells growth inhibition by Taxol in presence of glycyrrhizin, compared with taxol alone", "setting": "[4]; Taxol 0.01 μg/ml + glycyrrhizin 1 μg/ml versus taxol 0.05 μg/ml alone", "result": "higher than even the treatment with taxol (@ 0.05 μg/ml) alone"}, {"measurement": "Final titre of viable cells upon treatment with taxol-glycyrrhizin combination", "setting": "[4]; taxol 0.01 μg/ml + glycyrrhizin 1 μg/ml", "result": "0.025 × 10^6 per ml"}, {"measurement": "Final titre of viable cells upon treatment with taxol alone", "setting": "[4]; taxol 0.01 μg/ml", "result": "0.05 × 10^−6 per ml"}, {"measurement": "Final titre of viable cells upon treatment with taxol-glycyrrhizin combination", "setting": "[4]; taxol 0.02 μg/ml + glycyrrhizin 1 μg/ml", "result": "0.024 × 10^6 per ml"}, {"measurement": "Final titre of viable cells upon treatment with taxol alone", "setting": "[4]; taxol 0.02 μg/ml", "result": "0.04 × 10^−6 per ml"}, {"measurement": "Final titre of viable cells upon treatment with taxol-glycyrrhizin combination", "setting": "[4]; taxol 0.05 μg/ml + glycyrrhizin 1 μg/ml", "result": "0.021 × 10^6 per ml"}, {"measurement": "Final titre of viable cells upon treatment with taxol alone", "setting": "[4]; taxol 0.05 μg/ml", "result": "0.03 × 10^−6 per ml"}, {"measurement": "Enhancement of anticancerous activity (inhibiting growth and multiplication of MCF-7 cells) by glycyrrhizin", "setting": "[4]; taxol with glycyrrhizin 1 μg/ml", "result": "at least 5 folds"}]}, {"smiles": "Clc1ccccc1C(c1ccccc1)(c1ccccc1)n1ccnc1", "note": "[Clotrimazole]", "values": [{"measurement": "zone of inhibition at 4 µg/disc", "setting": "[5]; Candida albicans, ATCC10231, clotrimazole 4 μg/disc alone, glycyrrhizin 0", "result": 7, "unit": "mm"}, {"measurement": "Zone of inhibition", "setting": "[5]; clotrimazole 4 μg/disc + glycyrrhizin 1 μg/disc", "result": 11, "unit": "mm"}]}, {"smiles": "CN(C)[C@@H]1C(O)=C(C(N)=O)C(=O)[C@@]2(O)C(O)=C3C(=O)c4c(O)cccc4[C@@](C)(O)[C@H]3C[C@@H]12", "note": "[Tetracycline]", "values": [{"measurement": "Survival fraction of viable cells upon treatment with antibiotic alone (a)", "setting": "[1]; antibiotic 2 μg/ml", "result": 0.42}, {"measurement": "Survival fraction of viable cells upon treatment with antibiotic- glycyrrhizin combination (b)", "setting": "[1]; antibiotic 2 μg/ml + glycyrrhizin 1 μg/ml", "result": 0.22}, {"measurement": "*Folds enhancement in antibiotic activity (a/b)", "setting": "[1]; antibiotic 2 μg/ml", "result": 1.9, "unit": "folds"}, {"measurement": "Survival fraction of viable cells upon treatment with antibiotic alone (a)", "setting": "[1]; antibiotic 4 μg/ml", "result": 0.27}, {"measurement": "Survival fraction of viable cells upon treatment with antibiotic- glycyrrhizin combination (b)", "setting": "[1]; [7]", "result": 0.03}, {"measurement": "*Folds enhancement in antibiotic activity (a/b)", "setting": "[1]; antibiotic 4 μg/ml", "result": 9.0, "unit": "folds"}, {"measurement": "Survival fraction of viable cells upon treatment with antibiotic alone (a)", "setting": "[2]; Table 2, antibiotic 1 μg/ml", "result": 0.10}, {"measurement": "Survival fraction of viable cells upon treatment with antibiotic- glycyrrhizin combination (b)", "setting": "[2]; Table 2, antibiotic 1 μg/ml + glycyrrhizin 1 μg/ml", "result": 0.02}, {"measurement": "*Folds enhancement in antibiotic activity (a/b)", "setting": "[2]; Table 2, antibiotic 1 μg/ml, glycyrrhizin 1 μg/ml", "result": 5.00, "unit": "folds"}, {"measurement": "Survival fraction of viable cells upon treatment with antibiotic alone (a)", "setting": "[3]; antibiotic 0.5 μg/ml", "result": 0.3}, {"measurement": "Survival fraction of viable cells upon treatment with antibiotic- glycyrrhizin combination (b)", "setting": "[3]; antibiotic 0.5 μg/ml + glycyrrhizin 1 μg/ml", "result": 0.2}, {"measurement": "*Folds enhancement in antibiotic activity (a/b)", "setting": "[3]; antibiotic 0.5 μg/ml", "result": 1.5, "unit": "folds"}]}]}
